Legend:
[1] = test system: S. aureus; assay: Inhibition of RIND IX reduction by various cyclic polypeptide antibiotics; type: cell-based, Staphylococcus aureus; conditions: 635 nm
Description: The following materials were used in this example: stock solutions of RIND IX compound dispersion prepared as described above, glucose (10% in water), trimethyl-1,4-benzoquinone ETA (1.5 mg/ml methanol), and the antibiotics (1 mg/ml in dimethylsulfoxide). S. aureus cells were grown as described above. The final cell concentration in the assay mixture was about 4.3×10^8 cells/ml.
Test solutions were prepared by adding in the order: 1.2 ml of HEPES buffer, 50 μl glucose solution, 1.5 ml of RIND IX dispersion, 100 μl of antibiotic solution, 100 μl of cell suspension and 25 μl of ETA solution. Control solutions were prepared as described in Examples 2 and 3. Optical density readings (OD) were measured at 635 nm at 0 minutes and after incubation at 37° C. for 30 minutes for test and control solutions, and the change in density (ΔOD) was determined. Table VI below lists the results, expressed as corrected percent inhibition of the reduction of the RIND compound. The corrected percent inhibition is calculated by dividing the difference between the ΔOD obtained from the Cell Control without antibiotic and the ΔOD of the test solution, by ΔOD of the Cell Control without antibiotic. All readings were corrected by subtracting readings of the appropriate background Controls.
Solutions containing 2.9 ml HEPES, 50 μl of the antibiotic solution and 100 μl cell solution were incubated at 37° C. for 30 minutes, centrifuged for 10 minutes and decanted. The resulting pellet was then treated with 1.4 ml HEPES, 50 μl glucose solution, 1.5 ml RIND IX dispersion and 25 μl ETA solution, mixed well and the densities recorded as described above in Method 1. The corrected percent inhibition data was calculated as described in Method 1 above.

[2] = test system: P. vulgaris; assay: RIND XXIX reduction solution assay, Δ fluorescence; type: cell-based, Proteus vulgaris; conditions: P. vulgaris (gram -) about 5×10^7 cells/ml
Description: (§1) Bacterial suspensions were prepared by growing the cells in BHT broth to stationary phase overnight at 37° C. P. auruginosa was grown with agitation. About 40 ml of each overnight culture was centrifuged, decanted and washed once with 0.05 molar potassium phosphate buffer or 0.05 molar N-2-hydroxy-ethylpiperazine-N'-2-ethanesulfonic acid (HEPES) buffer, pH 7.8, and resuspended in buffer.
(§2) Dispersions containing RIND compounds were prepared by dissolving the RIND compound in N,N-dimethylformamide (DMF) at 16 mg compound per ml of solvent. An aliquot (250 μl) of the resulting solution was added to 500 μl of TRITON X-100 surfactant. This mixture was then added dropwise with stirring to 25 ml of 0.05 molar HEPES buffer. A dispersion of RIND XXIX was prepared similarly except that DMF was acidified with 0.1% sulfuric acid. Compositions containing water-compatible RIND compounds were prepared as described above except the surfactant was omitted.
(§3) Each test solution contained the following: dispersion of RIND XXIX (25 μl) prepared as described above, glucose (400 μl of 10% aqueous solution), tryptose (400 μl of 10% aqueous solution), trimethyl-1,4-benzoquinone ETA (500 μl of 1.5 mg/ml methanol). Aliquots (200 μl) of the mixture were mixed with solutions of the antibiotics (50 μl). The cell suspensions (50 μl) were then added. The final concentration of gramcidin S and tyrocidin were 0.1 mg/ml and 3.3 mg/ml, respectively. The final cell concentration was about 5×10^7 cells/ml. Cell control solutions contained all reagents except antibiotics. Background controls consisted of both buffer and solution controls. […]
(§4) The solutions were incubated at 37° C. for 30 minutes, and the change in fluorescence emission (Δ fluorescence) was determined as the difference between the readings taken when the solutions were first mixed and then after 30 minutes incubation. Measurements were made in a commercially available MICROFLUOR Reader (available from Dynatech Laboratories, Alexandria, Virginia, U.S.A.), modified with an excitation filter at 540 nm, an emission filter at 620 nm and a Xenon lamp. […]

[3] = test system: P. aeruginosa; assay: RIND XXIX reduction solution assay, Δ fluorescence; type: cell-based, Pseudomonas aeruginosa; conditions: P. aeruginosa (gram -) about 5×10^7 cells/ml
Description: as §1, §2, §3, §4

[4] = test system: E. coli; assay: RIND XXIX reduction solution assay, Δ fluorescence; type: cell-based, Escherichia coli; conditions: E. coli (gram -) about 5×10^7 cells/ml
Description: as §1, §2, §3, §4

[5] = test system: viable gram-positive and gram-negative bacteria; assay: Differentiation in RIND XXIX solution assays, overall result; type: cell-based
Description: Each test solution contained the following: dispersion of RIND XXIX (25 μl) prepared as described above, glucose (400 μl of 10% aqueous solution), tryptose (400 μl of 10% aqueous solution), trimethyl-1,4-benzoquinone ETA (500 μl of 1.5 mg/ml methanol). Aliquots (200 μl) of the mixture were mixed with solutions of the antibiotics (50 μl). The cell suspensions (50 μl) were then added. The final concentration of gramcidin S and tyrocidin were 0.1 mg/ml and 3.3 mg/ml, respectively. The final cell concentration was about 5×10^7 cells/ml. Cell control solutions contained all reagents except antibiotics. Background controls consisted of both buffer and solution controls. The buffer control contained all reagents except antibiotics and cells. The solution control contained all reagents except cells.
(§5) The solutions were incubated at 37° C. for 30 minutes, and the change in fluorescence emission (Δ fluorescence) was determined as the difference between the readings taken when the solutions were first mixed and then after 30 minutes incubation. Measurements were made in a commercially available MICROFLUOR Reader (available from Dynatech Laboratories, Alexandria, Virginia, U.S.A.), modified with an excitation filter at 540 nm, an emission filter at 620 nm and a Xenon lamp.
This example illustrates the practice of this invention to identify a Proteus species in solution. Test solutions and cell control solutions were prepared and tested as described in Example 2 and 3 except that polymixin B was used at 0.01 mg/ml of methanol. The final cell concentration was about 5×10^7 cells/ml.

[6] = test system: K. pneumoniae; assay: RIND XXIX reduction solution assay, Δ fluorescence; type: cell-based, Klebsiella pneumoniae; conditions: K. pneumoniae (gram -) about 5×10^7 cells/ml
Description: as §1, §2, §3, §4

[7] = test system: E. cloacae; assay: RIND XXIX reduction solution assay, Δ fluorescence; type: cell-based, Enterobacter cloacae; conditions: E. cloacae (gram -) about 5×10^7 cells/ml
Description: as §1, §2, §3, §4

[8] = test system: S. aureus; assay: RIND XXIX reduction solution assay, Δ fluorescence; type: cell-based, Staphylococcus aureus; conditions: S. aureus (gram +) about 5×10^7 cells/ml, tyrocidin 3.3 mg/ml, 37° C.
Description: as §1
as §2, with “Compositions containing water-compatible RIND compounds were prepared as described above except the surfactant was omitted.” left out
as §5

[9] = test system: E. coli; assay: MTT reduction solution assay, ΔOD 540 nm; type: cell-based, Escherichia coli; conditions: E. coli (-) 5×10^7, tyrocidin 0.825 mg/ml, 37° C.
Description: (§6) These examples illustrate the differentiation of bacteria using a tetrazolium salt and phenolic dye as the reducible compounds and two cyclic polypeptide antibiotics according to the present invention. The tetrazolium salt was 3-(4,5-dimethyl-2-thiazolyl) -2,5-diphenyl-2H-tetrazolium bromide (MTT) which forms a colored formazan dye when reduced. The phenolic dye was 2,6-dichloroindophenol (DCIP) which forms a colorless species when reduced.
(§7) Solutions of the reducible compounds were prepared with the following: HEPES buffer (3 ml, 0.05 molar, pH 7.5), TRITON X-100 nonionic surfactant (1% concentration), glucose (50 μl of 10% in water), tryptose (50 μl of a 10% solution in water), MTT (25 μl of 5 mg/ml methanol) or DCIP (25 μl of 3 mg/ml methanol) and phenazine methosultate ETA (25 μl of 3 mg/ml methanol).
(§8) Test solutions were prepared from the following: reducible compound solution from above (200 μl), 50 μl of either gramicidin S solution (6 mg/ml methanol and 9 ml of buffer) or tyrocidin solution (100 mg/ml methanol and 8 ml of buffer) and 50 μl of cell suspension. […] The change in optical density (ΔOD) was determined after 30 minutes at 37° C. at 540 nm for the MTT assay and at 620 nm for the DCIP assay using a commercially available spectrophotometer.

[10] = test system: S. aureus; assay: DCIP reduction solution assay, ΔOD 620 nm; type: cell-based, Staphylococcus aureus; conditions: S. aureus (+) 5×10^7, tyrocidin 0.825 mg/ml, 37° C.
Description: as §6, §7, §8

[11] = test system: E. coli; assay: DCIP reduction solution assay, ΔOD 620 nm; type: cell-based, Escherichia coli; conditions: E. coli (-) 5×10^7, tyrocidin 0.825 mg/ml, 37° C.
Description: as §6, §7, §8

[12] = test system: S. faecalis; assay: MTT reduction solution assay, ΔOD 540 nm; type: cell-based, Streptococcus faecalis; conditions: S. faecalis (+) 5×10^7, tyrocidin 0.825 mg/ml, 37° C.
Description: as §6, §7, §8

[13] = test system: P. vulgaris; assay: DCIP reduction solution assay, ΔOD 620 nm; type: cell-based, Proteus vulgaris; conditions: P. vulgaris (-) 5×10^7, tyrocidin 0.825 mg/ml, 37° C.
Description: as §6, §7, §8

[14] = test system: E. cloacae; assay: DCIP reduction solution assay, ΔOD 620 nm; type: cell-based, Enterobacter cloacae; conditions: E. cloacae (-) 5×10^7, tyrocidin 0.825 mg/ml, 37° C.
Description: as §6, §7, §8

[15] = test system: P. aeruginosa; assay: MTT reduction solution assay, ΔOD 540 nm; type: cell-based, Pseudomonas aeruginosa; conditions: P. aeruginosa (-) 5×10^7, tyrocidin 0.825 mg/ml, 37° C.
Description: as §6, §7, §8

[16] = test system: P. vulgaris; assay: MTT reduction solution assay, ΔOD 540 nm; type: cell-based, Proteus vulgaris; conditions: P. vulgaris (-) 5×10^7, tyrocidin 0.825 mg/ml, 37° C.
Description: as §6, §7, §8

[17] = test system: S. faecalis; assay: DCIP reduction solution assay, ΔOD 620 nm; type: cell-based, Streptococcus faecalis; conditions: S. faecalis (+) 5×10^7, tyrocidin 0.825 mg/ml, 37° C.
Description: as §6, §7, §8

[18] = test system: K. pneumoniae; assay: MTT reduction solution assay, ΔOD 540 nm; type: cell-based, Klebsiella pneumoniae; conditions: K. pneumoniae (-) 5×10^7, tyrocidin 0.825 mg/ml, 37° C.
Description: as §6, §7, §8

[19] = test system: E. cloacae; assay: MTT reduction solution assay, ΔOD 540 nm; type: cell-based, Enterobacter cloacae; conditions: E. cloacae (-) 5×10^7, tyrocidin 0.825 mg/ml, 37° C.
Description: as §6, §7, §8

[20] = test system: S. faecalis; assay: RIND XXIX reduction solution assay, Δ fluorescence; type: cell-based, Streptococcus faecalis; conditions: S. faecalis (gram +) about 5×10^7 cells/ml, tyrocidin 3.3 mg/ml, 37° C.
Description: as §1
as §2, with “Compositions containing water-compatible RIND compounds were prepared as described above except the surfactant was omitted.” left out
as §5

[21] = test system: K. pneumoniae; assay: DCIP reduction solution assay, ΔOD 620 nm; type: cell-based, Klebsiella pneumoniae; conditions: K. pneumoniae (-) 5×10^7, tyrocidin 0.825 mg/ml, 37° C.
Description: as §6, §7, §8

[22] = test system: S. aureus; assay: MTT reduction solution assay, ΔOD 540 nm; type: cell-based, Staphylococcus aureus; conditions: S. aureus (+) 5×10^7, tyrocidin 0.825 mg/ml, 37° C.
Description: as §6, §7, §8

[23] = test system: P. aeruginosa; assay: DCIP reduction solution assay, ΔOD 620 nm; type: cell-based, Pseudomonas aeruginosa; conditions: P. aeruginosa (-) 5×10^7, tyrocidin 0.825 mg/ml, 37° C.
Description: as §6, §7, §8

[24] = Test Method 1 (antibiotic in the test solution), S. aureus about 4.3×10^8 cells/ml, 100 μl of 1 mg/ml antibiotic solution, 30 minutes at 37° C.
[25] = polymixin B at 0.01 mg/ml of methanol

Compound: CN[C@H](CC(C)C)C(=O)N[C@H]1C(=O)N[C@@H](CC(N)=O)C(=O)N[C@H]2C(=O)N[C@H]3C(=O)N[C@H](C(=O)N[C@H](C(=O)O)c4cc(O)cc(O)c4-c4cc3ccc4O)[C@H](O)c3ccc(c(Cl)c3)Oc3cc2cc(c3O[C@@H]2O[C@H](CO)[C@@H](O)[C@H](O)[C@H]2O[C@H]2C[C@](C)(N)[C@H](O)[C@H](C)O2)Oc2ccc(cc2Cl)[C@H]1O [Vancomycin, vancomycin]
- Corrected % Inhibition [1, 24]: No Inhibition

Compound: polymixin B
- Δ Relative Fluorescence (30 Minutes) [2, 25]: 3079
- Δ Relative Fluorescence (30 Minutes) [3, 25]: 1287
- Δ Relative Fluorescence (30 Minutes) [4, 25]: 1245
- inhibition of reduction of RIND XXIX by gram-negative microorganisms, in words [5, 25]: inhibited all of the gram-negative microorganisms except Proteus vulgaris from reducing the RIND XXIX compound
- Δ Relative Fluorescence (30 Minutes) [6, 25]: 1212
- Δ Relative Fluorescence (30 Minutes) [7, 25]: 1975

Compound: ristocetin
- Corrected % Inhibition [1, 24]: No Inhibition

Compound: tyrocidin
- Δ Fluorescence (30 Minutes) [8]: 1834
- ΔOD, 540 nm after 30 Minutes [9]: 1.207
- ΔOD, 620 nm after 30 Minutes [10]: 0.074
- ΔOD, 620 nm after 30 Minutes [11]: 1.054
- Δ Fluorescence (30 Minutes) ([2]; tyrocidin 3.3 mg/ml, 37° C.): > 4000
- ΔOD, 540 nm after 30 Minutes [12]: 0.048
- ΔOD, 620 nm after 30 Minutes [13]: 0.941
- ΔOD, 620 nm after 30 Minutes [14]: 0.999
- Δ Fluorescence (30 Minutes) ([3]; tyrocidin 3.3 mg/ml, 37° C.): > 4000
- Δ Fluorescence (30 Minutes) ([4]; tyrocidin 3.3 mg/ml, 37° C.): > 4000
- ΔOD, 540 nm after 30 Minutes [15]: 0.692
- ΔOD, 540 nm after 30 Minutes [16]: 0.778
- differentiation between viable gram-positive and gram-negative bacteria, in words ([5]; gramicidin S 0.1 mg/ml, tyrocidin 3.3 mg/ml): can be used with RIND XXIX to differentiate between viable gram-positive and gram-negative bacteria
- Δ Fluorescence (30 Minutes) ([6]; tyrocidin 3.3 mg/ml, 37° C.): > 4000
- ΔOD, 620 nm after 30 Minutes [17]: 0.048
- Δ Fluorescence (30 Minutes) ([7]; tyrocidin 3.3 mg/ml, 37° C.): > 4000
- ΔOD, 540 nm after 30 Minutes [18]: 0.842
- ΔOD, 540 nm after 30 Minutes [19]: 0.748
- Δ Fluorescence (30 Minutes) [20]: 0880
- ΔOD, 620 nm after 30 Minutes [21]: 0.819
- ΔOD, 540 nm after 30 Minutes [22]: 0.113
- ΔOD, 620 nm after 30 Minutes [23]: 0.983

Compound: virginiamycin
- Corrected % Inhibition ([1]; Test Method 2 (cells preincubated with 50 μl antibiotic solution 30 minutes, centrifuged, pellet assayed), S. aureus): No Inhibition
